Several values for one entry are separate records, joined by “and”; a condition that tells them apart may be missing. Equal entries are not always repeated. Toxic doses and inconclusive results are not listed.
System: P388 leukemia ip, CD2F1 mice, survival T/C
Test: NCI In Vivo Anticancer Drug Screen. Data for tumor model P388 Leukemia (intraperitoneal) in CD2F1 (CDF1) mice
Conditions: endpoint: median survival time, higher = longer survival
In short: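 Mice carrying the transplanted tumor received test compound or vehicle. Survival was recorded in each group, and the value is the treated-group measurement divided by that of the vehicle-treated control group.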

## Nc1ncnc2c1ncn2C1OC(COP(=O)(O)O)C(O)C1O (stereo unspecified)
dose: 12.5 mg/kg/injection, schedule: Q01DX009 (ip), vehicle: saline
  T/C: 99 % of control
dose: 18.8 mg/kg/injection, schedule: Q03HX016 (ip), vehicle: saline
  T/C: 123 % of control
dose: 18.8 mg/kg/injection, schedule: Q03HX024 (ip), vehicle: saline
  T/C: 113 % of control
dose: 20.0 mg/kg/injection, schedule: Q01DX009 (ip), vehicle: water
  T/C: 96 % of control
dose: 25.0 mg/kg/injection, schedule: Q01DX009 (ip), vehicle: saline
  T/C: 102 % of control
dose: 25.0 mg/kg/injection, schedule: Q01DX009 (ip), vehicle: suspension in saline
  T/C: 104 % of control
dose: 40.0 mg/kg/injection, schedule: Q01DX009 (ip), vehicle: water
  T/C: 103 % of control and 105 % of control
dose: 50.0 mg/kg/injection, schedule: Q01DX005 (ip), vehicle: water
  T/C: 101 % of control
dose: 50.0 mg/kg/injection, schedule: Q01DX005 (iv), vehicle: water
  T/C: 102 % of control
dose: 50.0 mg/kg/injection, schedule: Q01DX009 (ip), vehicle: saline
  T/C: 94 % of control and 98 % of control
dose: 50.0 mg/kg/injection, schedule: Q01DX009 (ip), vehicle: suspension in saline
  T/C: 100 % of control
dose: 50.0 mg/kg/injection, schedule: Q01DX009 (ip), vehicle: water
  T/C: 113 % of control
dose: 75.0 mg/kg/injection, schedule: Q03HX016 (ip), vehicle: saline
  T/C: 152 % of control
dose: 75.0 mg/kg/injection, schedule: Q03HX024 (ip), vehicle: saline
  T/C: 150 % of control
dose: 80.0 mg/kg/injection, schedule: Q01DX009 (ip), vehicle: water
  T/C: 108 % of control and 116 % of control
dose: 90.0 mg/kg/injection, schedule: Q03HX024 (ip), vehicle: water
  T/C: 122 % of control
dose: 100.0 mg/kg/injection, schedule: Q01DX005 (ip), vehicle: water
  T/C: 122 % of control
dose: 100.0 mg/kg/injection, schedule: Q01DX005 (iv), vehicle: water
  T/C: 104 % of control
dose: 100.0 mg/kg/injection, schedule: Q01DX009 (ip), vehicle: saline
  T/C: 101 % of control and 96 % of control
dose: 100.0 mg/kg/injection, schedule: Q01DX009 (ip), vehicle: suspension in saline
  T/C: 96 % of control
dose: 100.0 mg/kg/injection, schedule: Q01DX009 (oral), vehicle: water
  T/C: 99 % of control
dose: 100.0 mg/kg/injection, schedule: Q03HX016 (ip), vehicle: saline
  T/C: 156 % of control
dose: 100.0 mg/kg/injection, schedule: Q03HX016 (ip), vehicle: water
  T/C: 160 % of control
dose: 100.0 mg/kg/injection, schedule: Q03HX024 (ip), vehicle: saline
  T/C: 150 % of control
dose: 100.0 mg/kg/injection, schedule: Q03HX024 (ip), vehicle: water
  T/C: 151 % of control
dose: 100.0 mg/kg/injection, schedule: Q04DX003 (ip), vehicle: water
  T/C: 120 % of control
dose: 100.0 mg/kg/injection, schedule: Q08DX002 (ip), vehicle: water
  T/C: 112 % of control
dose: 150.0 mg/kg/injection, schedule: Q03HX016 (ip), vehicle: saline
  T/C: 167 % of control
dose: 150.0 mg/kg/injection, schedule: Q03HX024 (ip), vehicle: saline
  T/C: 171 % of control
dose: 160.0 mg/kg/injection, schedule: Q01DX009 (ip), vehicle: water
  T/C: 109 % of control
dose: 200.0 mg/kg/injection, schedule: Q01DX005 (iv), vehicle: water
  T/C: 102 % of control
dose: 200.0 mg/kg/injection, schedule: Q01DX009 (ip), vehicle: saline
  T/C: 92 % of control and 101 % of control
dose: 200.0 mg/kg/injection, schedule: Q01DX009 (ip), vehicle: suspension in saline
  T/C: 106 % of control
dose: 200.0 mg/kg/injection, schedule: Q01DX009 (oral), vehicle: water
  T/C: 104 % of control
dose: 200.0 mg/kg/injection, schedule: Q03HX016 (ip), vehicle: water
  T/C: 183 % of control
dose: 200.0 mg/kg/injection, schedule: Q03HX024 (ip), vehicle: water
  T/C: 186 % of control
dose: 200.0 mg/kg/injection, schedule: Q04DX003 (ip), vehicle: water
  T/C: 121 % of control
dose: 200.0 mg/kg/injection, schedule: Q08DX002 (ip), vehicle: water
  T/C: 113 % of control
dose: 400.0 mg/kg/injection, schedule: Q01DX005 (iv), vehicle: water
  T/C: 106 % of control
dose: 400.0 mg/kg/injection, schedule: Q01DX009 (ip), vehicle: saline
  T/C: 104 % of control
dose: 400.0 mg/kg/injection, schedule: Q01DX009 (ip), vehicle: water
  T/C: 153 % of control
dose: 400.0 mg/kg/injection, schedule: Q03HX009 (oral), vehicle: water
  T/C: 98 % of control
dose: 400.0 mg/kg/injection, schedule: Q03HX015 (oral), vehicle: water
  T/C: 103 % of control
dose: 400.0 mg/kg/injection, schedule: Q03HX016 (ip), vehicle: water
  T/C: 230 % of control
dose: 400.0 mg/kg/injection, schedule: Q03HX024 (ip), vehicle: water
  T/C: 210 % of control
dose: 400.0 mg/kg/injection, schedule: Q04DX003 (ip), vehicle: water
  T/C: 119 % of control
dose: 400.0 mg/kg/injection, schedule: Q08DX002 (ip), vehicle: water
  T/C: 118 % of control
dose: 800.0 mg/kg/injection, schedule: Q01DX005 (ip), vehicle: water
  T/C: 158 % of control
dose: 800.0 mg/kg/injection, schedule: Q01DX005 (iv), vehicle: water
  T/C: 111 % of control
dose: 800.0 mg/kg/injection, schedule: Q01DX009 (ip), vehicle: water
  T/C: 164 % of control
dose: 800.0 mg/kg/injection, schedule: Q01DX009 (oral), vehicle: water
  T/C: 90 % of control
dose: 800.0 mg/kg/injection, schedule: Q03HX009 (ip), vehicle: water
  T/C: 167 % of control
dose: 800.0 mg/kg/injection, schedule: Q03HX009 (oral), vehicle: water
  T/C: 105 % of control
dose: 800.0 mg/kg/injection, schedule: Q03HX015 (oral), vehicle: water
  T/C: 100 % of control
dose: 800.0 mg/kg/injection, schedule: Q03HX016 (ip), vehicle: water
  T/C: 260 % of control
dose: 800.0 mg/kg/injection, schedule: Q08DX002 (ip), vehicle: water
  T/C: 124 % of control
dose: 1600.0 mg/kg/injection, schedule: Q01DX009 (oral), vehicle: water
  T/C: 99 % of control
dose: 1600.0 mg/kg/injection, schedule: Q03HX009 (ip), vehicle: water
  T/C: 197 % of control
dose: 1600.0 mg/kg/injection, schedule: Q03HX009 (oral), vehicle: water
  T/C: 98 % of control
dose: 1600.0 mg/kg/injection, schedule: Q03HX015 (oral), vehicle: water
  T/C: 100 % of control
dose: 3200.0 mg/kg/injection, schedule: Q03HX009 (oral), vehicle: water
  T/C: 96 % of control
dose: 3200.0 mg/kg/injection, schedule: Q03HX015 (oral), vehicle: water
  T/C: 102 % of control

## Cc1ccc(S(=O)(=O)N/N=C/c2c(C)nc3n2CCS3)cc1
dose: 100.0 mg/kg/injection, schedule: Q01DX001 (ip), vehicle: Klucel (hydroxypropylcellulose) (HPC)
  T/C: 101 % of control
dose: 200.0 mg/kg/injection, schedule: Q01DX001 (ip), vehicle: Klucel (hydroxypropylcellulose) (HPC)
  T/C: 102 % of control
dose: 400.0 mg/kg/injection, schedule: Q01DX001 (ip), vehicle: Klucel (hydroxypropylcellulose) (HPC)
  T/C: 102 % of control

## O=C1CN(c2ccccc2)C(=O)CN1Nc1ccccc1
dose: 50.0 mg/kg/injection, schedule: Q01DX009 (ip), vehicle: saline with Tween-80
  T/C: 93 % of control
dose: 100.0 mg/kg/injection, schedule: Q01DX009 (ip), vehicle: saline with Tween-80
  T/C: 93 % of control

## CCN(CC)CCCNC(=O)C(c1ccccc1)c1ccccc1
dose: 12.5 mg/kg/injection, schedule: Q01DX005 (ip), vehicle: saline
  T/C: 100 % of control
dose: 25.0 mg/kg/injection, schedule: Q01DX005 (ip), vehicle: saline
  T/C: 115 % of control
dose: 50.0 mg/kg/injection, schedule: Q01DX005 (ip), vehicle: saline
  T/C: 100 % of control and 92 % of control

## Cc1ccc2ncccc2c1N (tested in a mixture with another compound)
dose: 6.25 mg/kg/injection, schedule: Q01DX009 (ip), vehicle: gum acacia
  T/C: 106 % of control
dose: 12.5 mg/kg/injection, schedule: Q01DX009 (ip), vehicle: gum acacia
  T/C: 113 % of control
dose: 25.0 mg/kg/injection, schedule: Q01DX009 (ip), vehicle: gum acacia
  T/C: 107 % of control
dose: 50.0 mg/kg/injection, schedule: Q01DX009 (ip), vehicle: gum acacia
  T/C: 108 % of control

## C=C1C(=O)O[C@@H]2C[C@@]3(C)CC(=O)C=C(C)[C@@H]3C[C@H]12
dose: 6.25 mg/kg/injection, schedule: Q04DX003 (ip), vehicle: saline with Tween-80
  T/C: 108 % of control
dose: 12.5 mg/kg/injection, schedule: Q04DX003 (ip), vehicle: saline with Tween-80
  T/C: 104 % of control
dose: 25.0 mg/kg/injection, schedule: Q04DX003 (ip), vehicle: saline with Tween-80
  T/C: 108 % of control
dose: 50.0 mg/kg/injection, schedule: Q04DX003 (ip), vehicle: saline with Tween-80
  T/C: 100 % of control

## O=C(Nc1cccc2c1CCCC2)c1cc2ccccc2cc1O
dose: 50.0 mg/kg/injection, schedule: Q01DX005 (ip), vehicle: saline with Tween-80
  T/C: 92 % of control
dose: 100.0 mg/kg/injection, schedule: Q01DX005 (ip), vehicle: saline with Tween-80
  T/C: 91 % of control
dose: 200.0 mg/kg/injection, schedule: Q01DX005 (ip), vehicle: saline with Tween-80
  T/C: 91 % of control

Source: PubChem BioAssay AID330 (DTP/NCI, 2004)
